{"source": "patent US10961199B2", "about": "(3B Pharmaceuticals GmbH, priority 2012, dated 2021)", "key": {"NTR1 [1]": {"target": "T1, NTR1 (Homo sapiens, UniProt P30989)", "T1 sequence (P30989 whole entry, the tested form may be a part)": "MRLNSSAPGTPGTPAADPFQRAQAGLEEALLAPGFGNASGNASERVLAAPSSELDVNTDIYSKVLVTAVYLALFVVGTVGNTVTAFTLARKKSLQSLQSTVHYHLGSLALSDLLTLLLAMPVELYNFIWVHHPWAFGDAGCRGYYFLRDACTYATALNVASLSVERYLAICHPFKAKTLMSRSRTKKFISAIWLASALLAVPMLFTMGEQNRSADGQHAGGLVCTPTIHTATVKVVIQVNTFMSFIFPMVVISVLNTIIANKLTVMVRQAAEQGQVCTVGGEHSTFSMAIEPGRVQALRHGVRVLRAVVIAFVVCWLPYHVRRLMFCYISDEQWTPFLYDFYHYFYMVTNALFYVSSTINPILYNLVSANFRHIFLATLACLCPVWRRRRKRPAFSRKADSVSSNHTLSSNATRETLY", "test": "Functional Ca2+ mobilisation assay (antagonist assay)", "type": "cell-based", "parameters": "HA-tagged puromycin N-acetyltransferase-ubiquitin fusion (pExoIN2 system; HEK293 lines only) (N); host or cells: HT29 (endogenous receptor) or HEK293 stably transfected with NTR1", "conditions": "HT29 or NTR1-expressing HEK293 cells, EC80-concentration of agonist", "excerpt": "Functional Ca^2+ Mobilisation Assay\nCa^2+ ions are usually kept at nanomolar levels in the cytosol of cells, and act in a number of signal transduction pathways as second messengers. […] Changes in calcium ion concentration in standard assay protocols can be readily detected with fluorescent dyes that emit light when changes in intracellular Ca^2+ ion concentration occur. Given the transient nature of these responses, they are often read with instrumentation that has ‘inject and read’ capability.\nHT29 or NTR1-expressing HEK293 cells were trypsinized and seeded into black flat clear-bottom 96-well plates (Corning, Amsterdam, The Netherlands) at 6×10^5 cells per well. […] For agonist assays, serial dilutions of agonistic substances were added to the cells loaded with dye and the change of the fluorescent signal was recorded continually for approx. 90 s using a FlexStation II (Molecular Devices, Biberach, Germany). […] For antagonist assays, cells loaded with 100 μl of Ca5-dye were pre-incubated with serial dilutions of antagonistic substances for 30 min, before the EC80-concentration of agonist was added to the cells and the change of the fluorescent signal was recorded continually for approx. 90 s. […]"}, "NTR1 [2]": {"target": "T1, NTR1", "test": "NTR1 radioligand binding assay (RLB, Cerep)", "parameters": "host or cells: CHO cells (receptor preparation)", "conditions": "CHO cells recombinantly expressing the human receptor; 0.05 nM 125I-(Tyr3-neurotensin); 60 min at 4° C.", "protocol": "Radioligand Binding Assay\nIn order to determine the binding affinity of compounds comprising a radiolabel for NTR1, a radioligand binding assay was carried out. A radioligand is a radioactive biochemical substance that is used for diagnosis or for research-oriented study of cellular receptor systems of the body. In […] systems it is often used to quantify the binding of a test molecule to the binding site of radioligand. The higher the affinity of the molecule, the more radioligand is displaced from the binding site. The amount of bound radioligand can be measured by scintillation counting and thereby quantified. This assay is commonly used to calculate binding constants of molecules to receptors.\nThe NTR1 radioligand binding assay was performed by Cerep (Celle l'Evescault, France; Catalog reference 0109) according to Vita et al., FEBS Lett., 1993, 317, 139-142. NTR1 was prepared from CHO cells recombinantly expressing the human receptor and incubated with 0.05 nM ^125I-(Tyr^3-neurotensin) and serial dilutions of the test compounds. […] The result for each test compound is expressed as IC50 concentration and provides a measure for the affinity of the test compound for NTR1."}, "CCK1 (CCKA) (h)": {"target": "T2, CCK1 (CCKA) (h) (Homo sapiens, UniProt P32238)", "T2 construct": "Cerep P1", "T2 sequence (P32238 1-428)": "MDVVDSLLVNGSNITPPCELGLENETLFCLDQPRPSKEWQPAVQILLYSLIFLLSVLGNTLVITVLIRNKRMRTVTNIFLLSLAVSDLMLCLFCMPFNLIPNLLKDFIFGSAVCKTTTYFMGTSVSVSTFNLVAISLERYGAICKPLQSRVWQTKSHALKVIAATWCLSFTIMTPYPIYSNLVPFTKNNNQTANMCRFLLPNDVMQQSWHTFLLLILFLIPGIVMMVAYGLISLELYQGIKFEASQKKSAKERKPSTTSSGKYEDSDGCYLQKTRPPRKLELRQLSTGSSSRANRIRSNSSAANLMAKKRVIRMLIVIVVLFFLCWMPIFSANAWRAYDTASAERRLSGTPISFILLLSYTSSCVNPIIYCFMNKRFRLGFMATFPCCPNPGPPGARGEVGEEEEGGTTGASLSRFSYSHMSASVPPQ", "test": "ExpresSProfile CCK1 (CCKA) (h) agonist radioligand", "type": "binding", "conditions": "Reference Compound"}, "delta 2 (DOP) (h)": {"target": "T3, delta 2 (DOP) (h) (Homo sapiens, UniProt P41143)", "T3 construct": "Cerep (contract assay) P1", "T3 sequence (P41143 whole entry)": "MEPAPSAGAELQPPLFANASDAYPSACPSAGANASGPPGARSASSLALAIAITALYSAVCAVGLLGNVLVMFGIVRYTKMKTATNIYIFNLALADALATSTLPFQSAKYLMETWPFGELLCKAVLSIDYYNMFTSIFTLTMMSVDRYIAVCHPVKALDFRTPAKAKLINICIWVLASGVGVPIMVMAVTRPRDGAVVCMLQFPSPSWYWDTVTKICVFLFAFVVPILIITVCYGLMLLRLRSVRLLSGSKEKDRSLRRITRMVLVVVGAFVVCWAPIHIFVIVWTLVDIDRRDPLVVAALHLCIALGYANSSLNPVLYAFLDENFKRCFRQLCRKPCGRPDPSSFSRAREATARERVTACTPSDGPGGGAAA", "test": "ExpresSProfile delta 2 (DOP) (h) agonist radioligand", "type": "binding", "conditions": "Reference Compound"}, "CXCR2 (IL-8B) (h)": {"target": "T4, CXCR2 (IL-8B) (h) (Homo sapiens, UniProt P25025)", "T4 construct": "Cerep P1", "T4 sequence (P25025 1-360)": "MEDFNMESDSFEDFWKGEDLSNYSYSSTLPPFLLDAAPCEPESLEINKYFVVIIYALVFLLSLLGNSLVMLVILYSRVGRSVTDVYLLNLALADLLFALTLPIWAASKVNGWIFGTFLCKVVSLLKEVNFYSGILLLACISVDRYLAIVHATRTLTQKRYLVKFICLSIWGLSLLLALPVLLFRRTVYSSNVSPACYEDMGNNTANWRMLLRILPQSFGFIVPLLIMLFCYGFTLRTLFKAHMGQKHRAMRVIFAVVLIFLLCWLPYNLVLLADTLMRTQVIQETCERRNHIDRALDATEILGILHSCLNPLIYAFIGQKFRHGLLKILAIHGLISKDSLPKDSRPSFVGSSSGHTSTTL", "test": "ExpresSProfile CXCR2 (IL-8B) (h) agonist radioligand", "type": "binding", "conditions": "Reference Compound"}, "CCR1 (h)": {"target": "T5, CCR1 (h) (Homo sapiens, UniProt P32246)", "T5 construct": "Cerep P1", "T5 sequence (P32246 1-355)": "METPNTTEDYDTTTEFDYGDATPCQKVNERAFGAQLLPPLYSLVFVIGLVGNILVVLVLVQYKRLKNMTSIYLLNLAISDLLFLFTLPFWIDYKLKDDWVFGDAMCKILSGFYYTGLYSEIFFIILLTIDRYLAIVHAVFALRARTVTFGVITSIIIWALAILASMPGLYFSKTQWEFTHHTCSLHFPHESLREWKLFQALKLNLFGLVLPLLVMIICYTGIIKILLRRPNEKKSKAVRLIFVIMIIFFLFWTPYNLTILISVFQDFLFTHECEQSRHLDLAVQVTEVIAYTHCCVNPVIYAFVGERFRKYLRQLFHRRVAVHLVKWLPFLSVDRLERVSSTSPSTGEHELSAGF", "test": "ExpresSProfile CCR1 (h) agonist radioligand", "type": "binding", "conditions": "Reference Compound; read-out: Ki Ref"}, "B2 (h)": {"target": "T6, B2 (h) (Homo sapiens, UniProt P30411)", "T6 construct": "Cerep P1", "T6 sequence (P30411 1-391)": "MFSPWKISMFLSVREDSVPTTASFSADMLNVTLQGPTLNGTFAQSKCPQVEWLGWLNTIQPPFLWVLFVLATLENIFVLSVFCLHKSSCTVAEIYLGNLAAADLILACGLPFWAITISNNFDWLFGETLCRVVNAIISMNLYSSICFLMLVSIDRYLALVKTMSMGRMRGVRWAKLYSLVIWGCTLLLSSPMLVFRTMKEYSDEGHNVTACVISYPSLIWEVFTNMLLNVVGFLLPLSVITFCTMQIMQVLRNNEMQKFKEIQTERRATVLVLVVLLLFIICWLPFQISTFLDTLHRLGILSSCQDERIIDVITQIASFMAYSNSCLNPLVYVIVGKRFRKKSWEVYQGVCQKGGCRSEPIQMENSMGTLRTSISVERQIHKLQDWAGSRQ", "test": "ExpresSProfile B2 (h) agonist radioligand", "type": "binding"}, "KV channel": {"target": "KV channel", "test": "ExpresSProfile KV channel antagonist radioligand", "type": "binding", "conditions": "Reference Compound; read-out: Ki Ref"}}, "data": [{"compound": "CNCCCN(C)CCCN(C)C(=O)c1ccc(-n2nc(C(=O)NC3(C(=O)O)C4CC5CC(C4)CC3C5)cc2-c2c(OC)cccc2OC)c(C(C)C)c1", "note": "(stereo not drawn) [(III), 2-({5-(2,6-Dimethoxy-phenyl)-1-[2-isopropyl-4-(methyl-{3-[methyl-(3-methylamino-propyl)-amino]-propyl}-carbamoyl)-phenyl]-1H-pyrazole-3-carbonyl}-amino)-adamantane-2-carboxylic acid]", "values": [{"measurement": "IC50 [nM] Ca", "setting": "NTR1 [1]", "result": "single digit nanomolar"}, {"measurement": "IC50 [nM] RLB", "setting": "NTR1 [2]", "result": "single digit nanomolar"}]}, {"compound": "COc1cccc(OC)c1-c1cc(C(=O)NC2(C(=O)O)C3CC4CC(C3)CC2C4)nn1-c1ccc(C(=O)N(C)CCCN(C)CCCN(C)C(=O)c2ccc(F)cc2)cc1C(C)C", "note": "(stereo not drawn) [(IIIg), 2-{[5-(2,6-Dimethoxy-phenyl)-1-(4-{[3-({3-[(4-fluoro-benzoyl)-methyl-amino]-propyl}-methyl-amino)-propyl]-methyl-carbamoyl}-2-isopropyl-phenyl)-1H-pyrazole-3-carbonyl]-amino}-adamantane-2-carboxylic acid]", "values": [{"measurement": "IC50", "setting": "NTR1 [2]", "result": 2, "unit": "nM"}]}, {"compound": "COc1cccc(OC)c1-c1cc(C(=O)NC2(C(=O)O)C3CC4CC(C3)CC2C4)nn1-c1ccc(C(=O)N(CCCN)CCCN(C)C)cc1C(C)C", "note": "(stereo not drawn) [(V), 2-{[1-{4-[(3-Amino-propyl)-(3-dimethylamino-propyl)-carbamoyl]-2-isopropyl-phenyl}-5-(2,6-dimethoxy-phenyl)-1H-pyrazole-3-carbonyl]-amino}-adamantane-2-carboxylic acid]", "values": [{"measurement": "IC50 [nM] Ca", "setting": "NTR1 [1]", "result": "single digit nanomolar"}, {"measurement": "IC50 [nM] RLB", "setting": "NTR1 [2]", "result": "single digit nanomolar"}]}, {"compound": "CCK-8s", "values": [{"measurement": "nH Ref", "setting": "CCK1 (CCKA) (h)", "result": 0.6}]}, {"compound": "DPDPE", "values": [{"measurement": "nH Ref", "setting": "delta 2 (DOP) (h)", "result": 0.9}]}, {"compound": "IL-8: reference compound, CXCR2 (IL-8B) (h) assay", "values": [{"measurement": "nH Ref", "setting": "CXCR2 (IL-8B) (h)", "result": 1.4}, {"measurement": "Ki", "setting": "CXCR2 (IL-8B) (h); read-out: Ki Ref", "result": 0.056, "unit": "nM"}]}, {"compound": "MIP-1alpha: reference compound, CCR1 (h) assay", "values": [{"measurement": "Ki", "setting": "CCR1 (h)", "result": 0.041, "unit": "nM"}]}, {"compound": "NPC 567", "values": [{"measurement": "nH Ref", "setting": "B2 (h)", "result": 0.9}]}, {"compound": "alpha-dendrotoxin", "values": [{"measurement": "Ki", "setting": "KV channel", "result": 0.2, "unit": "nM"}]}]}
